This is an account of results in PMC11221864, “FRAX486, a PAK inhibitor, overcomes ABCB1-mediated multidrug resistance in breast cancer cells” (Brazilian Journal of Medical and Biological Research, 2024).

As a reminder, the IC50 is the concentration needed to halve the response being measured.

For this assay, the target named is T1, ABCB1 (Homo sapiens, UniProt P08183).
T1 construct: ABCB1 in membrane vesicles from High Five insect cells
Nature of the assay: vanadate-sensitive ATPase assay in membrane vesicles. The format is biochemical.

T1 sequence (P08183 whole entry): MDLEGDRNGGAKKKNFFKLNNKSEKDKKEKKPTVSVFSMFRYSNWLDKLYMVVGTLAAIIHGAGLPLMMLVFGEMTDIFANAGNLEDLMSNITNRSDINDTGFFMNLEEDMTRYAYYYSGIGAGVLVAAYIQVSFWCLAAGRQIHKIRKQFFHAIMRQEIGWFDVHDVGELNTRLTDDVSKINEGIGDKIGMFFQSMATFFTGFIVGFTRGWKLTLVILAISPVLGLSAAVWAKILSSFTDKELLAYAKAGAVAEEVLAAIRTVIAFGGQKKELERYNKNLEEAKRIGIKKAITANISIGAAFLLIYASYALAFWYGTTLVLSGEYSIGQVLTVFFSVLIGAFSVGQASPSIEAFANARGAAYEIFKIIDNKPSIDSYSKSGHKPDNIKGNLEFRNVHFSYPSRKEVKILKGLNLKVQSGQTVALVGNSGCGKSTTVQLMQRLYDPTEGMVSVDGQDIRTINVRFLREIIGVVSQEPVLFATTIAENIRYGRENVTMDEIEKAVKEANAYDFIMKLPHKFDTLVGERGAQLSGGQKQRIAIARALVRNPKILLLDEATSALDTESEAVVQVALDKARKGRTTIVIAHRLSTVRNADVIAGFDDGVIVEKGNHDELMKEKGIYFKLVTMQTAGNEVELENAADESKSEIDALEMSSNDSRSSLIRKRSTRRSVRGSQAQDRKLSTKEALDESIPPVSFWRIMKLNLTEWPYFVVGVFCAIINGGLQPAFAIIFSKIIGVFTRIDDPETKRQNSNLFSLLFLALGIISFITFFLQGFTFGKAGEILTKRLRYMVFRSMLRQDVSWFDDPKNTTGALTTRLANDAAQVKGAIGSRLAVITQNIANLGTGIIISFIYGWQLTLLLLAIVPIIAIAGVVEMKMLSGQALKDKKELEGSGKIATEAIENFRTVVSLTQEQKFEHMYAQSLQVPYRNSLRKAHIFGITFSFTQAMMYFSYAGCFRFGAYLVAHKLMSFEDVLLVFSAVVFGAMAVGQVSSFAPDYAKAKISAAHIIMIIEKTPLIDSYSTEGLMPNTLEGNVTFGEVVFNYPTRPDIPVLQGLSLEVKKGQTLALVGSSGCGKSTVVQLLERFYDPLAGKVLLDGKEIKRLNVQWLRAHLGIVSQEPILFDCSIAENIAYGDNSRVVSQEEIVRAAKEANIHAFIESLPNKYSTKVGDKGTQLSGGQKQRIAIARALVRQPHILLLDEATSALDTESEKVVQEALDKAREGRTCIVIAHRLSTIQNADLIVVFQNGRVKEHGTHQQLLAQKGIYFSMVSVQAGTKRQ

`CCn1c(=O)c(-c2ccc(Cl)cc2Cl)cc2cnc(Nc3ccc(N4CCNCC4)c(F)c3)nc21` [FRAX486] showed an IC50 of 20 nM.
